From ChEMBL document CHEMBL1154476 (Eur J Med Chem, 2008)

Each compound was assayed against T1, Ribosyldihydronicotinamide dehydrogenase [quinone] (Homo sapiens, UniProt P16083) (assay: Displacement of [125I]iodomelatonin from MT3/QR2 melatonin binding site expressed in CHO cells).
T1 sequence (P16083 whole entry): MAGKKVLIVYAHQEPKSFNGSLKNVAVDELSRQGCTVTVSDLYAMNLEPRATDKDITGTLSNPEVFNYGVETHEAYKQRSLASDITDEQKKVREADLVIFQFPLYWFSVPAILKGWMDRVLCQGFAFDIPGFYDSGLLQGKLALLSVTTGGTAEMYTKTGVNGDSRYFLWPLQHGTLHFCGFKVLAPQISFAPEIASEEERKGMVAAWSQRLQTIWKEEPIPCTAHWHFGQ
Assay type: cell-based
For COc1ccc2c(CCNC(=O)C3CCC3)cccc2c1, the IC50 was 70.8 nM. COc1ccc2[nH]cc(CCNC(C)=O)c2c1[N+](=O)[O-] showed an IC50 of 1.2 nM. COc1ccc2occ(CCNC(C)=O)c2c1 showed an IC50 of 64.6 nM. With COc1ccc2c(c1)c(CCNC(C)=O)cn2C the IC50 was 2.82 nM. Work on COc1ccc2cccc(CCNC(=O)c3ccccc3)c2c1 yielded an IC50 of 28.8 nM. COc1ccc2cccc(CCNC(=O)C(C)C)c2c1 gave an IC50 of 43.7 nM. CC(=O)NCCc1c[nH]c2ccc([N+](=O)[O-])cc12 was tested, and the IC50 was 41.7 nM. For CS(=O)(=O)NCCc1cccc2ccccc12, the IC50 was 28.2 nM. Compound COC(=O)Nc1ccc2occ(CCNC(C)=O)c2c1 has an IC50 of 15.8 nM. COC(=O)Nc1ccc2occ(CCNC(=O)c3ccccc3)c2c1 gave an IC50 of 67.6 nM. With CNC(=O)c1ccc2cccc(CNC(C)=O)c2c1 the IC50 was 12 nM. Work on CC(=O)NCCc1cccc2ccc([S+](C)[O-])cc12 (centres undefined) yielded an IC50 of 37.2 nM. Compound COC(=O)Nc1ccc2cccc(CNC(=O)C3CC3)c2c1 has an IC50 of 24 nM. Work on CSc1ccc2cccc(CCNC(C)=O)c2c1 yielded an IC50 of 18.2 nM. For CCOC(=O)c1[nH]c2ccc(OC)cc2c1CCNC(C)=O, the IC50 was 3.02 nM. With COc1ccc2cccc(CC3=NC(=O)NC3=O)c2c1 the IC50 was 61.7 nM. Compound COc1ccc2cccc(CCN3CCOC3=O)c2c1 has an IC50 of 14.1 nM. COc1ccc2cccc(CCNC(=O)c3ccco3)c2c1 was tested, and the IC50 was 53.7 nM. In the case of O=C(NCCc1cccc2ccc(O)cc12)c1ccco1, the IC50 is reported as 11 nM. In the case of CC(=O)NCCc1cccc2ccc(S(N)(=O)=O)cc12, the IC50 is reported as 32.4 nM. Compound CC(C)(C)OC(=O)NCCc1cccc2ccc(O)cc12 has an IC50 of 51.3 nM. With CNS(=O)(=O)c1ccc2cccc(CCNC(=O)c3ccco3)c2c1 the IC50 was 9.12 nM. Compound CC(=O)NCCc1cccc2ccc(S(C)(=O)=O)cc12 has an IC50 of 20.9 nM. With C=CCC(=O)NCCc1cccc2ccc(O)cc12 the IC50 was 7.76 nM. COC(=O)c1ccc2cccc(CNC(=O)c3ccco3)c2c1 gave an IC50 of 52.5 nM. With C=CCC(=O)NCCc1coc2ccc(NC(=O)OC)cc12 the IC50 was 11 nM. COC(=O)c1ccc2occ(CCNC(=O)C3CCCC3)c2c1 was tested, and the IC50 was 18.2 nM. COC(=O)c1ccc2occ(CCNC(C)=O)c2c1 gave an IC50 of 14.1 nM. NC(=O)c1ccc2occ(CCNC(=O)c3ccco3)c2c1 was tested, and the IC50 was 67.6 nM. In the case of COc1ccc2cccc(CCNC(=O)CN3CCCC3=O)c2c1, the IC50 is reported as 61.7 nM. For COC(=O)Nc1ccc2[nH]c(I)c(CCNC(C)=O)c2c1, the IC50 was 0.302 nM. COC(=O)Nc1ccc2occ(CCNC(=O)C(C)C)c2c1 gave an IC50 of 22.9 nM. In the case of COC(=O)Nc1ccc2occ(CCNC(=O)c3ccco3)c2c1, the IC50 is reported as 56.2 nM. COc1ccc2c(c(CCNC(C)=O)cn2C)c1[N+](=O)[O-] showed an IC50 of 0.309 nM.
